Data from patent US6004994A, “Heterocyclic diarylmethylene derivatives, methods of preparing them and their uses in therapeutics” (Laboratoires UPSA, priority 1998, dated 1999).
pIC50: −log10 of the molar value.

Legend:
COX-2 = biological target: T1, COX-2 (Ovis aries, UniProt P79208); experiment: Inhibition of COX-2 enzymatic activity (PGE2 produced determined by EIA); format: biochemical, ewe (purified enzyme from ewe placenta); conditions: ewe placenta COX-2, arachidonic acid 4 μM; for inhibition at 1 µM: at 10^-6 M; for pIC50: n=1 to 4 determinations; for inhibition at 10 µM: 10^-5 M
T1 construct: purified enzyme from ewe placenta; from tissue; host or cells: ewe placenta
T1 sequence (P79208 17-603): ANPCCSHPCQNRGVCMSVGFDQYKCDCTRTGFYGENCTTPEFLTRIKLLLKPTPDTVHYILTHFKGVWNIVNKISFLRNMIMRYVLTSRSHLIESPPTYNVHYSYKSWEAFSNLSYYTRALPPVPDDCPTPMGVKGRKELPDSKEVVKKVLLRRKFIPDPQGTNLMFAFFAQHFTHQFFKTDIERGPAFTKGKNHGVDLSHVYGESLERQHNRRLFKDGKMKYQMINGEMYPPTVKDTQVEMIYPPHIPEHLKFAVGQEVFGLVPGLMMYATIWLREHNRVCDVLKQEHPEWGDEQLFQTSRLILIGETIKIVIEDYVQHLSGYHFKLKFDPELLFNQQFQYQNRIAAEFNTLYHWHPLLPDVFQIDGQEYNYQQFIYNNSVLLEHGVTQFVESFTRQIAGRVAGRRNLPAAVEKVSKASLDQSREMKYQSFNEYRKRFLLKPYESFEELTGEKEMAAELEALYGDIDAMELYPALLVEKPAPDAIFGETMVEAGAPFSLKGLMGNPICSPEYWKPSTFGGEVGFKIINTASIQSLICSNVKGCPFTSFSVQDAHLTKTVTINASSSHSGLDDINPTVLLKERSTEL
Method: (§1) The molecule studied is preincubated for 10 minutes at 25° C. with 2 U of COX-1 (purified enzyme from ram seminal vesicles) or 1 U of COX-2 (purified enzyme from ewe placenta). Arachidonic acid (6 μM for COX-1, 4 μM for COX-2) is added to the reaction medium and incubation is carried out for 5 minutes at 25° C. When incubation has ended, the enzymatic reaction is stopped by the addition of 1 N HCl and the PGE2 produced is deter mined by EIA. […] For other examples, the results are expressed in the form of IC50, the concentration in μM corresponding to 50% inhibition of the maximal enzymatic activity upon COX-1 and COX-2 (n=1 to 4 determinations).

COX-1 = biological target: T2, COX-1 (Ovis aries, UniProt P05979); experiment: Inhibition of COX-1 enzymatic activity (PGE2 produced determined by EIA); format: biochemical, ram (purified enzyme from ram seminal vesicles); conditions: 10^-4 M; ram seminal vesicle COX-1, arachidonic acid 6 μM
T2 construct: purified enzyme from ram seminal vesicles; from tissue; host or cells: ram seminal vesicles
T2 sequence (P05979 25-600): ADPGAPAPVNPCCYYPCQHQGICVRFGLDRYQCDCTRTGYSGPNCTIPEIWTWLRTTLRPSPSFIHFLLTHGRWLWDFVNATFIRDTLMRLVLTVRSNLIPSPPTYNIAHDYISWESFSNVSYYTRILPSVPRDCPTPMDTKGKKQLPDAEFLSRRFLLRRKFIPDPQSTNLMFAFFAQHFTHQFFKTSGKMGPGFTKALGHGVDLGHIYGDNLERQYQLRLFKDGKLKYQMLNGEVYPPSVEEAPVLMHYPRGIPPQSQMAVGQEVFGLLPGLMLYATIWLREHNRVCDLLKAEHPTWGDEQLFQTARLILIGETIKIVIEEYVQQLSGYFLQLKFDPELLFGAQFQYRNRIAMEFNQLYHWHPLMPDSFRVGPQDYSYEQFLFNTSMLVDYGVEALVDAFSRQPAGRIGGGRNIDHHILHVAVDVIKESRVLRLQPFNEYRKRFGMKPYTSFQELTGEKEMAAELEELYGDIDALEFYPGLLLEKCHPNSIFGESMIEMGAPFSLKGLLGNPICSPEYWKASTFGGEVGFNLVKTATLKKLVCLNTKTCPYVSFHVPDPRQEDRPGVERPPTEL
Method: as §1

arthritis with kaolin = experiment: Analgesic activity: arthritis with kaolin in rats; format: in vivo; conditions: rat, oral, thirty minutes after intra-articular kaolin; dose inducing 50% decrease of the maximal quotations of control
Method: The analgesic activity of the compounds of the Examples was evaluated according to the method of arthritis with kaolin.
The analgesic activity is evaluated in rats by the test of arthritis with kaolin. Thirty minutes after intra-articular administration of an aqueous 10% suspension of kaolin, the product is administered orally at a rate of 1 ml 100 g (n=10 animals per dose). The results are expressed in the form of ED50, the dose in mg/kg which induces 50% decrease of the maximal quotations obtained in the control batch, calculated by linear regression.

CS(=O)(=O)c1ccc(C(=C2CCN(Cc3ccccc3)C2=O)c2ccc(Cl)c(Cl)c2)cc1 [61 Z isomer]
inhibition at 1 µM (COX-2): 80%
pIC50 (COX-2): 6.64

CN1CC/C(=C(\c2ccc(S(N)(=O)=O)cc2)c2ccc(Cl)c(Cl)c2)C1=O [33 Z isomer]
inhibition at 1 µM (COX-2): 70%
pIC50 (COX-2): 6.41

COc1ccc(/C(=C2/CCN(C)C2=O)c2ccc(S(C)(=O)=O)cc2)cc1 [55 E isomer]
inhibition at 10 µM (COX-2): 44%

CS(=O)(=O)c1ccc(/C(=C2\SC(=S)NC2=O)c2ccc(Cl)cc2)cc1 [78 E isomer]
inhibition at 10 µM (COX-2): 72%
pIC50 (COX-2): 5.81
inhibition at 100 µM (COX-1): 37%

CCN1CC/C(=C(/c2ccc(Cl)cc2)c2ccc(S(C)(=O)=O)cc2)C1=O [32 Z isomer]
inhibition at 10 µM (COX-2): 84%
pIC50 (COX-2): 5.60
inhibition at 100 µM (COX-1): 13%

CS(=O)(=O)c1ccc(/C(=C2\N=C(c3ccccc3)OC2=O)c2ccc(Cl)cc2)cc1 [77 E isomer]
inhibition at 10 µM (COX-2): 77%
pIC50 (COX-2): 5.55
inhibition at 100 µM (COX-1): 90%

CN1CC/C(=C(/c2ccc(Cl)cc2)c2ccc(S(C)(=O)=O)cc2)C1=O [28 Z isomer]
inhibition at 10 µM (COX-2): 77%
pIC50 (COX-2): 5.53
inhibition at 100 µM (COX-1): 6%

CS(=O)(=O)c1ccc(C(=C2CCN(Cc3ccccc3Cl)C2=O)c2ccc(Cl)cc2)cc1 [63 Z isomer]
inhibition at 10 µM (COX-2): 88%
inhibition at 100 µM (COX-1): 83%

CC(=O)OCCN1CC/C(=C(/c2ccc(Cl)cc2)c2ccc(S(C)(=O)=O)cc2)C1=O [30 Z isomer]
inhibition at 10 µM (COX-2): 56%

CS(=O)(=O)c1ccc(/C(=C2\CCN(Cc3ccccc3)C2=O)c2ccc(Cl)cc2)cc1 [31 Z isomer]
inhibition at 10 µM (COX-2): 88%
inhibition at 100 µM (COX-1): 88%
ED50 (arthritis with kaolin): 18.5 mg/kg

CS(=O)(=O)c1ccc(/C(=C2\CCSC2=O)c2ccc(Cl)cc2)cc1 [80 Z isomer]
pIC50 (COX-2): 6.92
ED50 (arthritis with kaolin): 13.7 mg/kg

CN1CC/C(=C(\c2ccc(S(C)(=O)=O)cc2)c2ccc(Cl)c(Cl)c2)C1=O [53 Z isomer]
inhibition at 10 µM (COX-2): 92%
inhibition at 100 µM (COX-1): 36%

Cc1cccc(CN2CCC(=C(c3ccc(Cl)cc3)c3ccc(S(C)(=O)=O)cc3)C2=O)c1 [64 Z isomer]
inhibition at 10 µM (COX-2): 59%

CS(=O)(=O)c1ccc(/C(=C2\CCN(C3CCCCC3)C2=O)c2ccc(Cl)cc2)cc1 [29 Z isomer]
inhibition at 10 µM (COX-2): 86%
inhibition at 100 µM (COX-1): 72%

CS(=O)(=O)c1ccc(C(=C2CCN(Cc3ccc(Br)cc3)C2=O)c2ccc(Cl)cc2)cc1 [65 Z isomer]
inhibition at 10 µM (COX-2): 83%

CS(=O)(=O)c1ccc(C(=C2CCN(CCc3ccccc3)C2=O)c2ccc(Cl)cc2)cc1 [60 Z isomer]
inhibition at 1 µM (COX-2): 52%
inhibition at 100 µM (COX-1): 32%

Cc1cc(/C(=C2/CCN(C)C2=O)c2ccc(S(C)(=O)=O)cc2)ccc1F [56 Z isomer]
inhibition at 10 µM (COX-2): 53%

CS(=O)(=O)c1ccc(C(=C2CCN(Cc3cccc(Cl)c3)C2=O)c2ccc(Cl)cc2)cc1 [62 Z isomer]
inhibition at 10 µM (COX-2): 91%
inhibition at 100 µM (COX-1): 79%
